Source: PubChem BioAssay (NCI)
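96-well plates; 48 h exposure; 5 concentrations. Endpoints by linear interpolation between flanking doses. Not reached: highest tested concentration assigned. The concentration for full growth arrest is given as TGI.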

Experiments:
Assay in all cases: NCI-60 cell line screen, 48 h
OVCAR-8 ovarian = test system: OVCAR-8 ovarian
SK-OV-3 ovarian = test system: SK-OV-3 ovarian
OVCAR-3 ovarian = test system: OVCAR-3 ovarian
HCT-15 colon = test system: HCT-15 colon
UACC-62 melanoma = test system: UACC-62 melanoma
HOP-62 NSCLC = test system: HOP-62 NSCLC
OVCAR-5 ovarian = test system: OVCAR-5 ovarian
NCI-H460 lung = test system: NCI-H460 lung
CCRF-CEM leukemia = test system: CCRF-CEM leukemia
PC-3 prostate = test system: PC-3 prostate
A498 renal = test system: A498 renal
A549 NSCLC = test system: A549 NSCLC
SF-295 CNS = test system: SF-295 CNS
U251 CNS = test system: U251 CNS
DU-145 prostate = test system: DU-145 prostate
K-562 leukemia = test system: K-562 leukemia
OVCAR-4 ovarian = test system: OVCAR-4 ovarian
HCT-116 colon = test system: HCT-116 colon
COLO 205 colon = test system: COLO 205 colon
M14 melanoma = test system: M14 melanoma
MOLT-4 leukemia = test system: MOLT-4 leukemia
SW-620 colon = test system: SW-620 colon
MCF7 breast = test system: MCF7 breast
SK-MEL-28 melanoma = test system: SK-MEL-28 melanoma
KM12 colon = test system: KM12 colon
HT29 colon = test system: HT29 colon
SF-539 CNS = test system: SF-539 CNS
SN12C renal = test system: SN12C renal
SF-268 CNS = test system: SF-268 CNS
NCI-H226 lung = test system: NCI-H226 lung
HL-60(TB) leukemia = test system: HL-60(TB) leukemia
MALME-3M melanoma = test system: MALME-3M melanoma
NCI/ADR-RES ovarian = test system: NCI/ADR-RES ovarian
NCI-H522 lung = test system: NCI-H522 lung
BT-549 breast = test system: BT-549 breast
MDA-N = test system: MDA-N
IGROV1 ovarian = test system: IGROV1 ovarian
T-47D breast = test system: T-47D breast
HS 578T breast = test system: HS 578T breast
RPMI-8226 leukemia = test system: RPMI-8226 leukemia
SK-MEL-2 melanoma = test system: SK-MEL-2 melanoma
786-0 renal = test system: 786-0 renal
MDA-MB-435 = test system: MDA-MB-435
UO-31 renal = test system: UO-31 renal
ACHN renal = test system: ACHN renal
NCI-H23 lung = test system: NCI-H23 lung
EKVX NSCLC = test system: EKVX NSCLC
HOP-92 NSCLC = test system: HOP-92 NSCLC
SNB-19 CNS = test system: SNB-19 CNS
SNB-75 CNS = test system: SNB-75 CNS
HCC-2998 colon = test system: HCC-2998 colon
SK-MEL-5 melanoma = test system: SK-MEL-5 melanoma
MDA-MB-231 breast = test system: MDA-MB-231 breast
RXF 393 renal = test system: RXF 393 renal
SR leukemia = test system: SR leukemia
TK-10 renal = test system: TK-10 renal
CAKI-1 renal = test system: CAKI-1 renal
UACC-257 melanoma = test system: UACC-257 melanoma
LOX IMVI melanoma = test system: LOX IMVI melanoma

For `Nc1ccc2nc3ccc(=O)cc-3n(-c3ccccc3)c2c1`, the TGI (OVCAR-8 ovarian) was > 100 µM, the TGI (SK-OV-3 ovarian) was > 100 µM and the TGI (OVCAR-3 ovarian) was > 100 µM. The TGI (HCT-15 colon) was > 100 µM, the TGI (UACC-62 melanoma) was > 100 µM and the TGI (HOP-62 NSCLC) was > 100 µM. For the same compound, the TGI (OVCAR-5 ovarian) was > 100 µM, the TGI (NCI-H460 lung) was > 100 µM and the TGI (CCRF-CEM leukemia) was > 100 µM. The TGI (PC-3 prostate) was > 100 µM, the TGI (A498 renal) was 85.7 µM and the TGI (A549 NSCLC) was > 100 µM. The TGI (SF-295 CNS) was > 100 µM, the TGI (U251 CNS) was > 100 µM and the TGI (DU-145 prostate) was > 100 µM. The TGI (K-562 leukemia) was > 100 µM, the TGI (OVCAR-4 ovarian) was > 100 µM and the TGI (HCT-116 colon) was > 100 µM. The TGI (COLO 205 colon) was > 100 µM, the TGI (M14 melanoma) was > 100 µM and the TGI (MOLT-4 leukemia) was > 100 µM. For the same compound, the TGI (SW-620 colon) was > 100 µM, the TGI (MCF7 breast) was > 100 µM and the TGI (SK-MEL-28 melanoma) was > 100 µM. For the same compound, the TGI (KM12 colon) was > 100 µM, the TGI (HT29 colon) was > 100 µM and the TGI (SF-539 CNS) was > 100 µM. The TGI (SN12C renal) was > 100 µM, the TGI (SF-268 CNS) was > 100 µM and the TGI (NCI-H226 lung) was > 100 µM. For the same compound, the TGI (HL-60(TB) leukemia) was > 100 µM, the TGI (MALME-3M melanoma) was > 100 µM and the TGI (NCI/ADR-RES ovarian) was > 100 µM. The TGI (NCI-H522 lung) was > 100 µM, the TGI (BT-549 breast) was > 100 µM and the TGI (MDA-N) was > 100 µM. For the same compound, the TGI (IGROV1 ovarian) was > 100 µM, the TGI (T-47D breast) was > 100 µM and the TGI (HS 578T breast) was > 100 µM. For the same compound, the TGI (RPMI-8226 leukemia) was > 100 µM, the TGI (SK-MEL-2 melanoma) was > 100 µM and the TGI (786-0 renal) was > 100 µM. The TGI (MDA-MB-435) was > 100 µM, the TGI (UO-31 renal) was > 100 µM and the TGI (ACHN renal) was > 100 µM. For the same compound, the TGI (NCI-H23 lung) was > 100 µM, the TGI (EKVX NSCLC) was > 100 µM and the TGI (HOP-92 NSCLC) was > 100 µM. For the same compound, the TGI (SNB-19 CNS) was > 100 µM, the TGI (SNB-75 CNS) was 92.4 µM and the TGI (HCC-2998 colon) was > 100 µM. For the same compound, the TGI (SK-MEL-5 melanoma) was > 100 µM, the TGI (MDA-MB-231 breast) was > 100 µM and the TGI (RXF 393 renal) was > 100 µM.

For `CN=c1oc2ccccc2cc1C(N)=O`, the TGI (OVCAR-8 ovarian) was > 100 µM, the TGI (SK-OV-3 ovarian) was > 100 µM and the TGI (OVCAR-3 ovarian) was > 100 µM. For the same compound, the TGI (HCT-15 colon) was > 100 µM, the TGI (UACC-62 melanoma) was > 100 µM and the TGI (HOP-62 NSCLC) was > 100 µM. For the same compound, the TGI (SR leukemia) was > 100 µM, the TGI (NCI-H460 lung) was > 100 µM and the TGI (TK-10 renal) was > 100 µM. The TGI (CCRF-CEM leukemia) was > 100 µM, the TGI (CAKI-1 renal) was > 100 µM and the TGI (UACC-257 melanoma) was > 100 µM. The TGI (PC-3 prostate) was > 100 µM, the TGI (A549 NSCLC) was > 100 µM and the TGI (SF-295 CNS) was > 100 µM. For the same compound, the TGI (U251 CNS) was > 100 µM, the TGI (DU-145 prostate) was > 100 µM and the TGI (K-562 leukemia) was > 100 µM. The TGI (HCT-116 colon) was > 100 µM, the TGI (COLO 205 colon) was > 100 µM and the TGI (M14 melanoma) was > 100 µM. For the same compound, the TGI (MOLT-4 leukemia) was > 100 µM, the TGI (SW-620 colon) was > 100 µM and the TGI (MCF7 breast) was > 100 µM. For the same compound, the TGI (SK-MEL-28 melanoma) was > 100 µM, the TGI (KM12 colon) was > 100 µM and the TGI (HT29 colon) was > 100 µM. The TGI (SF-539 CNS) was > 100 µM, the TGI (LOX IMVI melanoma) was > 100 µM and the TGI (SN12C renal) was > 100 µM. For the same compound, the TGI (SF-268 CNS) was > 100 µM, the TGI (NCI-H226 lung) was > 100 µM and the TGI (HL-60(TB) leukemia) was > 100 µM. For the same compound, the TGI (NCI/ADR-RES ovarian) was > 100 µM, the TGI (NCI-H522 lung) was > 100 µM and the TGI (BT-549 breast) was > 100 µM. The TGI (MDA-N) was > 100 µM, the TGI (IGROV1 ovarian) was > 100 µM and the TGI (T-47D breast) was > 100 µM. The TGI (HS 578T breast) was > 100 µM, the TGI (RPMI-8226 leukemia) was > 100 µM and the TGI (SK-MEL-2 melanoma) was > 100 µM. The TGI (786-0 renal) was > 100 µM, the TGI (MDA-MB-435) was > 100 µM and the TGI (UO-31 renal) was > 100 µM. For the same compound, the TGI (ACHN renal) was > 100 µM, the TGI (NCI-H23 lung) was > 100 µM and the TGI (EKVX NSCLC) was > 100 µM. For the same compound, the TGI (HOP-92 NSCLC) was > 100 µM, the TGI (SNB-19 CNS) was > 100 µM and the TGI (SNB-75 CNS) was > 100 µM. For the same compound, the TGI (HCC-2998 colon) was > 100 µM, the TGI (SK-MEL-5 melanoma) was > 100 µM and the TGI (MDA-MB-231 breast) was > 100 µM. The TGI (RXF 393 renal) was > 100 µM.

`CC(C)=CCc1c(O)c(CC2=C(O)C(C)=C(O)C(CC=C(C)C)(C(=O)C(C)C)C2=O)c(O)c(C(=O)C(C)C)c1O` (stereo unspecified) was tested, and the TGI (OVCAR-8 ovarian) was 31.2 µM, the TGI (SK-OV-3 ovarian) was > 47.7 µM and the TGI (OVCAR-3 ovarian) was > 38.1 µM. For the same compound, the TGI (HCT-15 colon) was > 47.7 µM, the TGI (UACC-62 melanoma) was 22.4 µM and the TGI (HOP-62 NSCLC) was > 29.5 µM. For the same compound, the TGI (OVCAR-5 ovarian) was > 42.5 µM, the TGI (TK-10 renal) was > 47.7 µM and the TGI (CCRF-CEM leukemia) was > 15.1 µM. The TGI (CAKI-1 renal) was > 47.7 µM, the TGI (UACC-257 melanoma) was 28.8 µM and the TGI (PC-3 prostate) was > 47.7 µM. For the same compound, the TGI (A498 renal) was > 38.9 µM, the TGI (A549 NSCLC) was > 47.7 µM and the TGI (SF-295 CNS) was > 38.1 µM. For the same compound, the TGI (U251 CNS) was > 40.2 µM, the TGI (DU-145 prostate) was > 47.7 µM and the TGI (K-562 leukemia) was 34 µM. The TGI (OVCAR-4 ovarian) was > 47.7 µM, the TGI (HCT-116 colon) was 19.8 µM and the TGI (COLO 205 colon) was > 47.7 µM. For the same compound, the TGI (M14 melanoma) was > 36.6 µM, the TGI (MOLT-4 leukemia) was 11.4 µM and the TGI (SW-620 colon) was > 44.7 µM. The TGI (MCF7 breast) was > 45.3 µM, the TGI (SK-MEL-28 melanoma) was > 31.7 µM and the TGI (KM12 colon) was 17.5 µM. For the same compound, the TGI (HT29 colon) was 12.6 µM, the TGI (SF-539 CNS) was > 47.7 µM and the TGI (LOX IMVI melanoma) was > 28.1 µM. The TGI (SN12C renal) was > 47.7 µM, the TGI (SF-268 CNS) was > 47.7 µM and the TGI (NCI-H226 lung) was 21.8 µM. For the same compound, the TGI (HL-60(TB) leukemia) was > 47.7 µM, the TGI (MALME-3M melanoma) was 17.9 µM and the TGI (NCI/ADR-RES ovarian) was 27.5 µM. It also gave a TGI (NCI-H522 lung) of 21.5 µM, a TGI (BT-549 breast) of 36.9 µM and a TGI (MDA-N) of 38.1 µM. It also gave a TGI (IGROV1 ovarian) of 31.3 µM, a TGI (T-47D breast) of 33.7 µM and a TGI (HS 578T breast) of 21.6 µM. The TGI (RPMI-8226 leukemia) was > 31.2 µM, the TGI (SK-MEL-2 melanoma) was > 31.4 µM and the TGI (786-0 renal) was > 35.3 µM. For the same compound, the TGI (MDA-MB-435) was > 38.4 µM, the TGI (UO-31 renal) was 19.5 µM and the TGI (ACHN renal) was > 40.5 µM. For the same compound, the TGI (NCI-H23 lung) was 25.4 µM, the TGI (EKVX NSCLC) was > 44.6 µM and the TGI (HOP-92 NSCLC) was 25.5 µM. The TGI (SNB-19 CNS) was > 31 µM, the TGI (SNB-75 CNS) was > 47.7 µM and the TGI (HCC-2998 colon) was > 38.9 µM. For the same compound, the TGI (SK-MEL-5 melanoma) was 18.3 µM, the TGI (MDA-MB-231 breast) was 46.5 µM and the TGI (RXF 393 renal) was > 47.7 µM.
